Read-outs that look alike come from different tables or passages of the source. Where a SMILES comes first, the peptide text is derived from it. [ ]: non-standard residue; d: D form. dCha = N[C@H](CC1CCCCC1)C(=O)O
Key:
MC1R [1] = molecular target: T1, MC1R (Homo sapiens, UniProt Q01726); set-up: purchased Perkin Elmer, Boston Mass; host or cells: HEK293 transfected cell lines (membrane preparations); conditions: value quoted, not from Table 1; read-out: Ki MC1R (reported); cited from earlier work
MC5R = MC5R (Homo sapiens, UniProt P33032); assay: Competitive binding with 125I-NDP-MSH, HEK293 membrane preparations, MC5R; conditions: Ki MC5R, competition with 125I-NDP-MSH; cells noted in μM
Description: (§1) Binding analysis was done by Cerep laboratories (Paris, France) with coded samples.
(§2) The mixtures were filtered through 96-well GFC filters (Millipore, Billerica, Mass.), washed 3 times with binding buffer without BSA, dried and counted.
(§3) A competitive binding assay using a MCR panel including MCR 1, 3, 4, and 5 was performed.

MC4R = MC4R (Homo sapiens, UniProt P32245); assay: Competitive binding with 125I-NDP-MSH, HEK293 membrane preparations, MC4R
Description: as §1, §2, §3

[2] = test system: B16-F1 murine melanoma cells; assay: Intracellular cAMP in B16-F1 melanoma cells; type: cell-based; conditions: for EC50: B16-F1 cells, 10^-4-10^-11 M, 30 min, IBMX
Description: B16-F1 (melanoma cell line) cells from American Type Culture Collection (Manassas, Va.) were seeded into flat bottom 96 well plates at 5×10^4/well and cultured overnight in DMEM (Cambrex, Walkersville, Md.) supplemented with 2 mM glutamine, antibiotics (100 U/ml penicillin and 100 […]) and 10% heat-inactivated fetal bovine serum (Invitrogen, Grand Island, N.Y.). […] Cells were lysed and intracellular cAMP levels were measured by an enzyme immunoassay kit (Amersham Biosciences, Piscataway, N.J.). Forskolin (Sigma, St. Louis, Mo.) at 100 μM served as positive controls.
cAMP levels in B16-F1 melanoma cells after treatment with native α-MSH, RI α-MSH, or a scrambled control peptide were examined. The […] melanoma cell line expresses a high number of MCR1 receptors (3000-4000 receptors/cell) compared with macrophages cell lines which express only 100-200 receptors/cell. Therefore we selected to examine the effect of the RI α-MSH treatment on the melanoma cell line. Murine melanoma B16-F1 cells were treated with native α-MSH, RI α-MSH, or control scrambled peptide at concentrations 1 pg/ml-1 μg/ml. After 30 min, cells were lysed and intracellular cAMP was measured by an enzyme immunoassay. […] However, a higher concentration of RI α-MSH (100 ng/ml) was necessary to increase cAMP compared with native α-MSH which increased cAMP at a 10 pg/ml concentration. This difference in concentration of peptide necessary to increase cAMP levels may be the result of the binding affinity to the MCR1 receptor.
Murine melanoma B16-F1 cells were treated with native α-MSH, RI α-MSH, scrambled peptide control, KPV, or alanine substituted peptides of RI α-MSH at 1 μg/ml (FIG. 7B). […] Peptides designated 810, 811, and 812 have alanine substitutions in the central core tetrapeptide sequence (D-Trp D-Arg D-Phe D-His region; AA 5-8) (variant disclosed in SEQ ID NO:2) proposed to be involved in native α-MSH binding to the melanocortin receptor and its biological activity. […] The residues in the core tetrapeptide (wrfh) (variant disclosed in SEQ ID NO:2) and to a lesser extent, the methionine 4 of RI-MSH are critical for binding to MC1R.
B16-F1 murine melanoma cells were cultured into 96 well plates 5×10^4 cells/well overnight in media with L-glutamine and pen/strep and FBS. Media was removed and new media with IBMX was added to the cells for 1 hr. Cells were then treated with RI α-MSH, or RI α-MSH peptide analogs (890, 891, 892, 893, 894 or 895). Cells were lysed after 30 min using a cAMP assay kit and supernatant were used in the assay. Forskolin at 10 μM served as positive controls.
Intracellular cAMP was measured using a cAMP competition Assay Kit (Amersham Biosciences). All cell lysate samples were diluted 1:100 for analysis.
Murine melanoma B16-F1 cells were treated with RI α-MSH, or RI α-MSH analogs (869, 872, 880, 878, 886 and 890-895) at a concentration range of 10^−4-10^−11 M. cAMP levels from cells treated with RI α-MSH, or RI α-MSH analogs. […] See FIG. 22 for graphical data and Table 2 for EC50 data.

MC3R = MC3R (Homo sapiens, UniProt P41968); assay: Competitive binding with 125I-NDP-MSH, HEK293 membrane preparations, MC3R
Description: as §1, §2, §3

MC1R [3] = molecular target: T1, MC1R; assay: Competitive binding with 125I-NDP-MSH, HEK293 membrane preparations, MC1R; conditions: for Ki: Ki MC1R, competition with 125I-NDP-MSH;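 for all read-outs here: Read-out: receptor-bound radioligand retained by filtration and counted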
Description: as §1, §2, §3

mouse MC1R = mouse MC1R (Mus musculus, UniProt Q01727); assay: Binding affinity to mouse MC1R (data not shown)
C57BL/6 mice = assay: LPS inflammation mouse model, serum cytokines; type: in vivo; conditions: i.p. 30 min after LPS, serum at 2 h
Description: Male C57BL/6 mice were challenged with LPS (1 ug/mouse), i.p. After 30 min mice were treated with dexamethasone (2 mg/kg; Sigma), RI-α-MSH analog 891, or RI-α-MSH. At 2 hrs after LPS challenge, mice were bled for serum. Cytokine analysis was measured by flow cytometry with a cytometric bead array kit (BD Biosciences).
C57BL/6 mice were injected with LPS, i.p. and 30 minutes later native α-MSH or RI α-MSH analog 891 was administered i.p. at doses ranging from 5 mg/kg to 0.156 mg/kg. RI α-MSH analog 891 is an analog of RI α-MSH in which d-Cha and hsiiss D-amino acids were added to the core peptide sequence. […] MCP-1 was not affected by native α-MSH treatment (FIG. 16B).

[4] = peptides 5 to 0.156 mg/kg, dexamethasone 2 mg/kg

Chain of MC5R (P33032 whole entry): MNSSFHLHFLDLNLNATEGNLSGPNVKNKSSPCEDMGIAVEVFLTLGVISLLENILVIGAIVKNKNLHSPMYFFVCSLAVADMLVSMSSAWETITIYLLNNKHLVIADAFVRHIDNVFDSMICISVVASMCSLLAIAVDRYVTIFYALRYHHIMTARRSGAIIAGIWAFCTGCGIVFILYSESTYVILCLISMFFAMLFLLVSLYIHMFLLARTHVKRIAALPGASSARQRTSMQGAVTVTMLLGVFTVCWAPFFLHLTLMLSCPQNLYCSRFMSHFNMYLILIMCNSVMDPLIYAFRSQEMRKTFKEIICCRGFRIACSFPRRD
T1 sequence (Q01726 whole entry): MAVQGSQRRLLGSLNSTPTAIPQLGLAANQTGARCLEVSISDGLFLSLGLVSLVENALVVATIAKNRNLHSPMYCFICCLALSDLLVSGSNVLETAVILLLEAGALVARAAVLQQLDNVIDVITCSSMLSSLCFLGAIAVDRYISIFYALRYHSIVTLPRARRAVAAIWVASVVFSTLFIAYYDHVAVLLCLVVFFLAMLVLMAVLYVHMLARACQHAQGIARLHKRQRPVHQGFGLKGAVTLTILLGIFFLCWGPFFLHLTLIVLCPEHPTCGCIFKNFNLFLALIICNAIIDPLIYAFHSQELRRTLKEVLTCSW
Chain of MC4R (P32245 whole entry): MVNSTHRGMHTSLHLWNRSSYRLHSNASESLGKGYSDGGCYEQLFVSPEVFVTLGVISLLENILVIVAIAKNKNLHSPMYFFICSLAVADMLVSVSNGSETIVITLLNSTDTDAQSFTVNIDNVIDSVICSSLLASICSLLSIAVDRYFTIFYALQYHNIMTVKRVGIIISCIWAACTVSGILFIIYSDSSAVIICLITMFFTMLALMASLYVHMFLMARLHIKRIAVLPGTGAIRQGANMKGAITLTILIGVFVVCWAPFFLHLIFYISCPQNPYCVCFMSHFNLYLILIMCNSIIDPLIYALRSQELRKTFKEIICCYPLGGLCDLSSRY
Chain of MC3R (P41968 whole entry): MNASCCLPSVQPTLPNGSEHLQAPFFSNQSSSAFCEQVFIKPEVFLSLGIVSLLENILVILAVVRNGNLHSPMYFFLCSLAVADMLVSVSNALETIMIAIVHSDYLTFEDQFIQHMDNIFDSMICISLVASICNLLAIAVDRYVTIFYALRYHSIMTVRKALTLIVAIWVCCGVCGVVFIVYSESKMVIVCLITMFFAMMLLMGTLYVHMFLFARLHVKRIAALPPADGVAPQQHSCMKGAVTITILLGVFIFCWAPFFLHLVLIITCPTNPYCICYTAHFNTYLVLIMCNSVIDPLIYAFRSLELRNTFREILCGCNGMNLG
Chain of mouse MC1R (Q01727 whole entry): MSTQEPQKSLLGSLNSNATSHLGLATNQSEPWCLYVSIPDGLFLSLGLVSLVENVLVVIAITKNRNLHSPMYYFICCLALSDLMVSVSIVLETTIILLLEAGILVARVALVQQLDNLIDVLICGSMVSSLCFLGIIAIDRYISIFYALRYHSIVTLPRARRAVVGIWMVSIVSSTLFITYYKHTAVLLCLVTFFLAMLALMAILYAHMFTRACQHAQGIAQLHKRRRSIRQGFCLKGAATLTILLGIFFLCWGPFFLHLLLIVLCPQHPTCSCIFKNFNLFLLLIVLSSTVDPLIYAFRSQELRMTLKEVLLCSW

Row | SMILES | Ki (MC5R) [µM] | Ki (MC4R) [µM] | EC50 [2] [µM] | Ki (MC3R) [µM] | Ki (MC1R [3]) [µM] | binding affinity to mouse MC1R (in words) (mouse MC1R) | affinity for MC1R compared with parent peptide (in words) (MC1R [3]) | Ki (MC1R [1]) [pM] | potency to stimulate cAMP (in words) ([2]; data not shown) | serum IL-10 vs vehicle (in words) (C57BL/6 mice; 5 to 0.156 mg/kg) | serum MCP-1 vs vehicle (in words) (C57BL/6 mice; [4]) | serum TNF-α vs vehicle (in words) (C57BL/6 mice; [4])
1 | NC(=O)[C@H](Cc1c[nH]c2ccccc12)NC(=O)[C@H](CCCN=C(N)N)NC(=O)[C@@H](Cc1ccccc1)NC(=O)[C@H](Cc1cnc[nH]1)NC(=O)CCCc1ccccc1 [compound 819, (Ph(CH2)3CO) HfRW] | – | – | – | – | – | – | – | 6 | – | – | – | –
2 | CSCC[C@@H](NC(=O)[C@@H](CCC(=O)O)NC(=O)[C@@H](Cc1c[nH]cn1)NC(=O)[C@@H](CC1CCCCC1)NC(=O)[C@@H](CCCNC(=N)N)NC(=O)[C@@H](Cc1c[nH]c2ccccc12)NC(=O)CNC(=O)[C@@H](CCCCN)NC(=O)[C@H]1CCCN1C(=O)[C@H](NC(C)=O)C(C)C)C(=O)N[C@H](CO)C(=O)N[C@H](Cc1ccc(O)cc1)C(=O)N[C@H](CO)C(N)=O [compound 869, vpkGwr(D-Cha)hemsys] | ~25 | > 10 | 0.014 | > 30 | 0.0022 | – | – | – | – | – | – | –
3 | CC[C@@H](C)[C@@H](NC(=O)[C@@H](CO)NC(=O)[C@@H](Cc1c[nH]cn1)NC(=O)[C@H](Cc1ccccc1)NC(=O)[C@@H](CCCNC(=N)N)NC(=O)[C@@H](Cc1c[nH]c2ccccc12)NC(=O)CNC(=O)[C@@H](CCCCN)NC(=O)[C@H]1CCCN1C(=O)[C@H](NC(C)=O)C(C)C)C(=O)N[C@@H](C(=O)N[C@H](CO)C(=O)N[C@H](CO)C(N)=O)[C@H](C)CC [compound 880, vpkGwrFhsiiss] (Ac-[dV][dP][dK]G[dW][dR]F[dH][dS][dI][dI][dS][dS]-NH2) | > 30 | ~10 | 0.023 | ~18 | 0.0018 ± 0.0035 | – | – | – | – | – | – | –

Now from value to compound, other results behind:

Row | Ki (MC5R) [µM] | Ki (MC4R) [µM] | EC50 [2] [µM] | Ki (MC3R) [µM] | Ki (MC1R [3]) [µM] | binding affinity to mouse MC1R (in words) (mouse MC1R) | affinity for MC1R compared with parent peptide (in words) (MC1R [3]) | SMILES | Ki (MC1R [1]) [pM] | potency to stimulate cAMP (in words) ([2]; data not shown) | serum IL-10 vs vehicle (in words) (C57BL/6 mice; 5 to 0.156 mg/kg) | serum MCP-1 vs vehicle (in words) (C57BL/6 mice; [4]) | serum TNF-α vs vehicle (in words) (C57BL/6 mice; [4])
4 | ~20 | ~10 | 0.002 | ~19 | 0.001 | – | – | CC[C@@H](C)[C@@H](NC(=O)[C@@H](CO)NC(=O)[C@@H](Cc1c[nH]cn1)NC(=O)[C@@H](Cc1ccccc1)NC(=O)[C@@H](CCCNC(=N)N)NC(=O)[C@@H](Cc1c[nH]c2ccccc12)NC(=O)CNC(=O)[C@@H](CCCCN)NC(=O)[C@H]1CCCN1C(=O)[C@H](NC(C)=O)C(C)C)C(=O)N[C@@H](C(=O)N[C@H](CO)C(=O)N[C@H](CO)C(N)=O)[C@H](C)CC [compound 886, vpkgwrfhsiiss] (Ac-[dV][dP][dK]G[dW][dR][dF][dH][dS][dI][dI][dS][dS]-NH2) | – | – | – | – | –
5 | ~4.5 | ~14 | – | ~15 | 0.0019 | – | – | CCCCSCC[C@@H](NC(=O)[C@@H](CCC(=O)O)NC(=O)[C@@H](Cc1c[nH]cn1)NC(=O)[C@@H](CC1CCCCC1)NC(=O)[C@@H](CCCNC(=N)N)NC(=O)[C@@H](Cc1c[nH]c2ccccc12)NC(=O)CNC(=O)[C@@H](CCCCN)NC(=O)[C@H]1CCCN1C(=O)[C@H](NC(C)=O)C(C)C)C(=O)N[C@H](CO)C(=O)N[C@H](Cc1ccc(O)cc1)C(=O)N[C@H](CO)C(N)=O [compound 890, vpkGwr(D-Cha)he(d-Buthionine)sys] | – | – | – | – | –
6 | ~2.5 | ~3.2 | 0.081 | ~8 | 0.00043 ± 1e-05 | increased binding affinity | indistinguishable from MSH | CC[C@@H](C)[C@@H](NC(=O)[C@@H](CO)NC(=O)[C@@H](Cc1c[nH]cn1)NC(=O)[C@@H](CC1CCCCC1)NC(=O)[C@@H](CCCNC(=N)N)NC(=O)[C@@H](Cc1c[nH]c2ccccc12)NC(=O)CNC(=O)[C@@H](CCCCN)NC(=O)[C@H]1CCCN1C(=O)[C@H](NC(C)=O)C(C)C)C(=O)N[C@@H](C(=O)N[C@H](CO)C(=O)N[C@H](CO)C(N)=O)[C@H](C)CC [compound 891, vpkGwr(D-Cha)hsiiss] (Ac-[dV][dP][dK]G[dW][dR][dCha][dH][dS][dI][dI][dS][dS]-NH2) | – | increased potency to stimulate cAMP | significant decrease | no affect | significant decrease

— patent US10385108B2, “Peptide analogs of alpha-melanocyte stimulating hormone” (Genzyme Corporation, priority 2008, dated 2019)
